Measured values reported in patent US20050137176A1, “Use of a steroidal or non-steroidal EcR receptor ligand in a cosmetic or dermatological preparation for maintaining cutaneous homeostasis” (L'OREAL, priority 2003, published 2005).

What was measured:
[1] = test system: MRP8 and MRP14; assay: Protein markers MRP8 and MRP14 by immunofluorescence on histological slices; type: cell-based; conditions: reconstructed epidermides, conditions of Example 1
Description: Ecdysterone was added to the medium of reconstructed epidermides under the same conditions as those of Example 1.
The proteins MRP8 and MRP14 are proteins that are strongly expressed in reconstructed skin, in psoriatic skin and by keratinocytes that are hyperproliferative but that have, however, maintained the capacity to differentiate. The analysis of the protein markers MRP8 and MRP14 was performed by immunofluorescence on histological slices.

[2] = test system: normal human keratinocytes; assay: Cell cycle analysis (DNA content by flow cytometry); type: cell-based; conditions: as a function of the amount of ecdysterone in the keratinocyte culture medium
Description: The cell cycle analysis consists in studying the DNA content of a cell population by flow cytometry. These studies were performed on normal human keratinocytes cultured as a monolayer in a defined medium (KGM-Clonetics).
The keratinocytes are derived from a mammoplasty. These keratinocytes were isolated and then cultured in KGM medium supplemented with growth factors (EGF: 10 ng/ml, 0.4 μg/ml, insulin 5 μg/ml, BPE (Bovine Pituitary Extract) 4 mL).
The cells are treated with ecdysterone for 8 hours to 48 hours. There is no EGF in the culture medium during the treatment with ecdysterone.
Ecdysterone was tested at the following concentrations: 1 μg/ml, 0.1 μg/ml and 0.01 μg/ml.
The protocol followed for the cell cycle analysis in flow cytometry is described in the following publication: Staiano-Coico L., Higgins P. J., Darzynkiewicz Z. et al; 1986 Human keratinocyte culture. Identification and stagind of epidermal cell subpopulations. J. Clin. Invest. 77, 396-404. The analysis was performed using a Facs Calibur 3C Trieur flow cytometer from the company Becton-Dickinson.

[3] = test system: reconstructed epidermides; assay: Measurement of the thickness of the epidermis (histology, HES staining, image analysis); type: cell-based; conditions: ecdysterone in culture medium of reconstructed epidermes, 7 days
Description: Reconstructed epidermides were prepared according to the technique of Asselineau et al., 1985 (Asselineau D, Bernard B A, Bailly C. & Darmon M: Epidermal morphogenesis and induction of 67 kD Keratin polypeptide by culture at the air liquid interface Exp Cell Res 159: 536-539).
From the first day of exposure to the air/liquid interface, the epidermides were cultured in the presence of ecdysterone in the culture medium (1 to 1000 μg/ml). The epidermes were cultured for 7 days. The treatment was renewed every 48 hours by changing the culture medium. After treatment for 7 days, the epidermes were harvested. The histological analysis is performed after staining with HES (hematoxylin eosin saffron).
Epidermal thickness measurements were performed on histological slices. To do this, 10 measurements are taken on a field. For each sample, 5 fields are counted. These measurements are performed using a Leica Q600S image analysis system with an ×10 objective lens. The mean thickness obtained for each sample corresponds to 50 measurements taken.

[4] = test system: keratinocytes derived from a mammoplasty; assay: Measurement of cell multiplication of keratinocytes (number of cells per flask); type: cell-based, human
Description: The keratinocytes are derived from a mammoplasty. These keratinocytes were isolated and then cultured in KGM medium (Clonetics) supplemented with growth factor (EGF (Epidermal Growth Factor): 10 ng/ml, 0.4 μg/ml, insulin 5 μg/ml, BPE (Bovine Pituitary Extract) 4 ml/L). The cells are treated with ecdysterone for 8 hours to 48 hours. There is no EGF in the culture medium during the treatment with ecdysterone. […]

[5] = test system: psoriasin mRNA; assay: Expression of psoriasin messenger RNA in reconstructed epidermides; type: cell-based; conditions: treatment for 7 days
From the text: (§1) Ecdysterone was applied to the medium of reconstructed epidermides under the same conditions as those of Example 1.
(§2) After treatment for 7 days, the epidermides were harvested.

[6] = test system: MRP8/MRP14 mRNA; assay: Expression of MRP8/MRP14 messenger RNA in reconstructed epidermides; type: cell-based; conditions: treatment for 7 days
From the text: as §1, §2

Q: How did the “Expression of the proteins MRP8 and MRP14 on histological slices” value [1] turn out when `CC(C)(O)CC[C@@H](O)[C@](C)(O)[C@H]1CC[C@@]2(O)C3=CC(=O)[C@@H]4C[C@@H](O)[C@@H](O)C[C@]4(C)[C@H]3CC[C@]12C` [Ecdysterone, (2b, 3b, 5b,22R)-2,3,14,20,22,25-hexahydroxycholest-7-en-6-one] was run?
A: Its value is “restricts the expression of MRP8 and MRP14 to the upper layers of the epidermis”.

Q: What about the “Phases of the cell cycle (cell population between G0/G1 and G2/M)” value [2] of the same compound?
A: Its value is “change in the cell population between the phases G0/G1 and G2/M”.

Q: And the “Parakeratosis or reduction in the thickness of the horny layer” value [3]?
A: The value was “not accompanied by parakeratosis”.

Q: What about the “Thickness of the epidermis at the level of the live layers” value [3] of the same compound?
A: Its value is “increase in the thickness of the epidermis at the level of the live layers”.

Q: What about the No of cells/flask ([4]; 0.001 μg/ml, 16 hours, second series) of the same compound?
A: The No of cells/flask was 3.6 × 10^5 cells/flask.

Q: What about the No of cells/flask ([4]; 0.001 μg/ml, 24 hours, second series) of the same compound?
A: Its No of cells/flask is 3.6 × 10^5 cells/flask.

Q: What about the No of cells/flask ([4]; 0.001 μg/ml, 48 hours, second series) of the same compound?
A: The No of cells/flask was 1.6e+06 cells/flask.

Q: What about the No of cells/flask ([4]; 0.01 μg/ml, 16 hours, first series) of the same compound?
A: The No of cells/flask was 0.8 × 10^6 cells/flask.

Q: What about the No of cells/flask ([4]; 0.01 μg/ml, 16 hours, second series) of the same compound?
A: Its No of cells/flask is 2.5 × 10^5 cells/flask.

Q: And the No of cells/flask ([4]; 0.01 μg/ml, 24 hours, first series)?
A: Its No of cells/flask is 1.0 × 10^6 cells/flask.

Q: What about the No of cells/flask ([4]; 0.01 μg/ml, 24 hours, second series) of the same compound?
A: Its No of cells/flask is 5.7 × 10^5 cells/flask.

Q: And the No of cells/flask ([4]; 0.01 μg/ml, 48 hours, second series)?
A: Its No of cells/flask is 1.6 × 10^6 cells/flask.

Q: What about the No of cells/flask ([4]; 0.1 μg/ml, 8 hours, first series) of the same compound?
A: Its No of cells/flask is 0.8 × 10^6 cells/flask.

Q: What about the No of cells/flask ([4]; 0.1 μg/ml, 16 hours, first series) of the same compound?
A: The No of cells/flask was 1.0 × 10^6 cells/flask.

Q: What about the No of cells/flask ([4]; 0.1 μg/ml, 16 hours, second series) of the same compound?
A: The No of cells/flask was 3.6 × 10^5 cells/flask.

Q: And the No of cells/flask ([4]; 0.1 μg/ml, 24 hours, first series)?
A: Its No of cells/flask is 1.1 × 10^6 cells/flask.

Q: And the No of cells/flask ([4]; 0.1 μg/ml, 24 hours, second series)?
A: Its No of cells/flask is 5.2 × 10^5 cells/flask.

Q: And the No of cells/flask ([4]; 0.1 μg/ml, 48 hours, second series)?
A: The No of cells/flask was 1.5 × 10^6 cells/flask.

Q: What about the No of cells/flask ([4]; 1 μg/ml, 8 hours, first series) of the same compound?
A: The No of cells/flask was 0.7 × 10^6 cells/flask.

Q: And the No of cells/flask ([4]; 1 μg/ml, 16 hours, first series)?
A: Its No of cells/flask is 0.5 × 10^6 cells/flask.

Q: And the No of cells/flask ([4]; 1 μg/ml, 24 hours, first series)?
A: The No of cells/flask was 1.1 × 10^6 cells/flask.

Q: What about the “Number of cells relative to the control cells” value ([4]; after treatment for 48 hours) of the same compound?
A: Its value is “no significant increase in the number of cells”.

Q: And the “Reduction of the expression of psoriasin mRNA (factor)” value [5]?
A: Its value is 3.5.

Q: And the “Reduction of the expression of MRP8/MRP14 mRNA (factor)” value [6]?
A: The value was 1.7.
